IC50 data for ten compounds are collected here from patent US20240025922A1, “TETRAHYDROPYRIDO[3,4-d]PYRIMIDINES AS HPK1 INHIBITORS” (Merck Patent GmbH, priority 2022, published 2024).

For assay [1], the target named is HPK1 (SLP76 phosphorylation at Ser376 in Jurkat and EL-4 cells) (Homo sapiens, UniProt Q92918). In kind it is cell-based. The following applies: αCD3/αCD28 Dynabeads stimulated cells, pSLP76 (Ser376) detection; read-out: HPK1 pSLP76 IC50. On the procedure: Cellular Assay—Phospho-SLP-76 (Ser376).
Sequence of HPK1 (SLP76 phosphorylation at Ser376 in Jurkat and EL-4 cells) (Q92918 whole entry, looked up): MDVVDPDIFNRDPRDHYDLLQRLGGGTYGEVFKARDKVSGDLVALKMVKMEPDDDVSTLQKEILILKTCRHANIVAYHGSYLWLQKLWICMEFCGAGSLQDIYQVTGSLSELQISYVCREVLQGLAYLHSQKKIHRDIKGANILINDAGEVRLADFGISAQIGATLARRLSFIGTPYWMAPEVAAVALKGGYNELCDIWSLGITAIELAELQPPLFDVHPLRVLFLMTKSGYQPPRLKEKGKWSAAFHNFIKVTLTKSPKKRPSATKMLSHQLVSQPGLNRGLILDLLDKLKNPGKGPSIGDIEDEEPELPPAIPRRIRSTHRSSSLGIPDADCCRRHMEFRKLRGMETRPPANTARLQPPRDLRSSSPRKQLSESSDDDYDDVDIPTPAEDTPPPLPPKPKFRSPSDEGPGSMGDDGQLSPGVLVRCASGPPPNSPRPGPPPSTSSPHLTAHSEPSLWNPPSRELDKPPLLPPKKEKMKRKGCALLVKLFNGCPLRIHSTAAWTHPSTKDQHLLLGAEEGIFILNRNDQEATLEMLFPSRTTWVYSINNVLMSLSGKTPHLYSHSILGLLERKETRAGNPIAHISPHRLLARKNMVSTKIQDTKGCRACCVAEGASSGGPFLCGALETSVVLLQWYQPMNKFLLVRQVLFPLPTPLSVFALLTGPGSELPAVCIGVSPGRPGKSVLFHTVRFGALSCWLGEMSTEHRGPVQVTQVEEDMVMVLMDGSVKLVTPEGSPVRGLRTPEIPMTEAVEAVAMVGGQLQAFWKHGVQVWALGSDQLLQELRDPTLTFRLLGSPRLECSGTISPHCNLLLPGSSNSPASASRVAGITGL
Inhibition of HPK1 enzymatic activity in cells was determined by detection of SLP76 phosphorylation at Ser376 residue in lysate from Jurkat (human) and EL-4 (mouse) cells. Jurkat and EL-4 cells express both HPK1 and SLP76 naturally. All cells were cultured in RPMI 1640 media containing 10% heat inactivated fetal bovine serum (FBS) and 1×Penicillin-Streptomycin. In either Jurkat or El-4 assay, cells were pre-incubated with test compounds prior to T cell stimulation by respective αCD3/αCD28 Dynabeads™. For detection, plates were read on the Envision and percent inhibition and IC50 were determined by Smart fit in Genedata Analyzer.
For Jurkat cells: 35 μL cell suspension were dispensed at a density of 30,000 cells/well in 384-well plates containing HBSS (Gibco, 14025076)+0.1% BSA). 10-point logarithmic serial dilution of test compounds in DMSO were prepared by a Hamilton automated liquid handling robot and 35 nL was transferred into each well by an Echo liquid handler. After 60 min. pre-incubation, the cells were stimulated by adding 5 μL human T activator αCD3/αCD28 Dynabeads™ (Gibco, 11132D) at 1.2×107 beads/mL for 15 minutes at 37° C. Detection of Ser376 phosphorylation status was accomplished by first adding 10 μL of 5×AlphaLISA lysis buffer (Perkin Elmer, ALSU-PSLP-A500) to each well of the cell plate using a Multidrop Combi (5840300), followed by 20 minutes shaking. 10 μL cell lysate from each treatment were then transferred to a white 384-well plate (Corning 3572) and incubated with AlphaLISA acceptor beads for one hour (AlphaLISA SureFire Ultra p-SLP76(Ser376), Perkin Elmer, ALSU-PSLP-A500), and donor beads for additional 2 hours at room temperature in the dark.
For EL-4.IL2 assay, 50 μL cell suspension at 2×10^6 cells/mL in HBSS were first dispensed into 384-well plates and then 50 nL serial dilutions of test compounds were spotted to each well by an Echo liquid handler. After 60 min. incubation at 37° C., cells were stimulated by adding 5 μL mouse T cell activator αCD3/αCD28 Dynabeads™ (ThermFisher Scientific, 11452D) for 30 minutes at 37° C. After a brief spin and subsequent supernatant discarded, 12.5 μL of Cisbio lysis buffer were added to each well and plates were shaken for 30 min at 450 RPM. For detection, 4 μL prepared HTRF antibody mixture (Cisbio, 63ADK000U) in detection buffer were mixed with 16 μl of cell lysate and plates were incubated at room temperature for 19 hours prior to EnVision reading.

The target in assay [2] is full-length human HPK1 (MAP4K1) (Homo sapiens (Human), UniProt Q92918). Put plainly: HPK1 Kinase Assay (Biochemical Assay), ADP-Glo. The following applies: GST-HPK1 3.2 nM, 10 μM ATP, MBP substrate, read-out: HPK1 enzymatic IC50. In short, it runs like this: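 GST-tagged full-length human HPK1 was expressed in Sf21 cells and used at 3.2 nM in 50 mM HEPES pH 7.5, 10 mM MgCl2, 2 mM DTT, 12.5 mM O-glycerophosphate, 0.01% BSA and 0.02% Brij-35. It was preincubated 15 min with 10-point compound dilutions, and the reaction was started with a start mix of 10 μM ATP and 3.235 μM MBP. After 120 min, ADP was measured by ADP-Glo luminescence and IC50 derived.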
Sequence of full-length human HPK1 (MAP4K1) (Q92918 whole entry): as the sequence (Q92918 whole entry, looked up) above
(In general: ADP-Glo first removes unused ATP, then detects ADP through luciferase.)

With `CNC(=O)c1ccc(Nc2ncc3c(n2)CN(c2cnc4c(c2Cl)NCCO4)CC3)cc1C` [Example 130, 4-[(7-{8-chloro-1H,2H,3H-pyrido[2,3-b][1,4]oxazin-7-yl}-5H,6H,7H,8H-pyrido[3,4-d]pyrimidin-2-yl)amino]-N,2-dimethylbenzamide], the IC50 (commonly the midpoint of a concentration-inhibition curve) is 500 to 1000 nM in assay [1] and less than 100 nM in assay [2].
For `Cc1c(N2CCc3cnc(Nc4ccc(CS(N)(=O)=O)cc4)nc3C2)cnc2c1NCCO2` [Example 128, {4-[(7-{8-methyl-1H,2H,3H-pyrido[2,3-b][1,4]oxazin-7-yl}-5H,6H,7H,8H-pyrido[3,4-d]pyrimidin-2-yl)amino]phenyl}methanesulfonamide] the same measures were less than 500 nM and less than 100 nM.
In the same order, the values of `COCCOCC(=O)Nc1ccc(Nc2ncc3c(n2)CN(c2cnc4c(c2C)NCCO4)CC3)cc1C` [Example 162, 2-(2-methoxyethoxy)-N-{2-methyl-4-[(7-{8-methyl-1H,2H,3H-pyrido[2,3-b][1,4]oxazin-7-yl}-5H,6H,7H,8H-pyrido[3,4-d]pyrimidin-2-yl)amino]phenyl}acetamide] are less than 500 nM and less than 100 nM.
In the same order, the values of `Cc1c(N2CCc3cnc(Nc4ccc(CC(=O)N5CC(OC(C)C)C5)cc4)nc3C2)cnc2c1NCCO2` [Example 174, 2-{4-[(7-{8-methyl-1H,2H,3H-pyrido[2,3-b][1,4]oxazin-7-yl}-5H,6H,7H,8H-pyrido[3,4-d]pyrimidin-2-yl)amino]phenyl}-1-[3-(propan-2-yloxy)azetidin-1-yl]ethan-1-one] are less than 500 nM and less than 100 nM.
Take `Cc1c(N2CCc3cnc(Nc4cnc(CS(C)(=O)=O)c(F)c4)nc3C2)cnc2c1NCCO2` [Example 19, 5-fluoro-6-(methanesulfonylmethyl)-N-(7-{8-methyl-1H,2H,3H-pyrido[2,3-b][1,4]oxazin-7-yl}-5H,6H,7H,8H-pyrido[3,4-d]pyrimidin-2-yl)pyridin-3-amine]: the IC50 in assay [1] was less than 500 nM; in assay [2], less than 100 nM.
For `CN1CCc2ncc(Nc3ncc4c(n3)CN(c3cnc5c(c3)NCCO5)CC4)cc2C1` [Example 87, 7-(2,3-dihydro-1H-pyrido[2,3-b][1,4]oxazin-7-yl)-N-(6-methyl-5,6,7,8-tetrahydro-1,6-naphthyridin-3-yl)-5,6,7,8-tetrahydropyrido[3,4-d]pyrimidin-2-amine] the same measures were greater than 1000 nM and 100 to 1000 nM.
In the same order, the values of `Cc1c(N2CCc3cnc(Nc4ccc5c(c4)CS(=O)(=O)C5)nc3C2)cnc2c1NCCO2` [Example 81, 5-((7-(8-methyl-2,3-dihydro-1H-pyrido[2,3-b][1,4]oxazin-7-yl)-5,6,7,8-tetrahydropyrido[3,4-d]pyrimidin-2-yl)amino)-1,3-dihydrobenzo[c]thiophene 2,2-dioxide] are less than 500 nM and less than 100 nM.
In the same order, the values of `Cc1c(N2CCc3cnc(Nc4ccc(N5CCC(O)CC5)c(CC#N)c4)nc3C2)cnc2c1NCCO2` [Example 91, 2-(2-(4-hydroxypiperidin-1-yl)-5-((7-(8-methyl-2,3-dihydro-1H-pyrido[2,3-b][1,4]oxazin-7-yl)-5,6,7,8-tetrahydropyrido[3,4-d]pyrimidin-2-yl)amino)phenyl)acetonitrile] are less than 500 nM and less than 100 nM.
`COCCS(=O)(=O)Cc1ccc(Nc2ncc3c(n2)CN(c2cnc4c(c2C)NCCO4)CC3)cc1` [Example 135, N-{4-[(2-methoxyethanesulfonyl)methyl]phenyl}-7-{8-methyl-1H,2H,3H-pyrido[2,3-b][1,4]oxazin-7-yl}-5H,6H,7H,8H-pyrido[3,4-d]pyrimidin-2-amine]: the figures for the 50% inhibitory concentration (IC50) in assay [1] and in assay [2] were less than 500 nM and less than 100 nM, respectively.
In the same order, the values of `Cc1c(N2CCc3cnc(Nc4ccc(CS(C)(=O)=O)cc4)cc3C2)cnc2c1NCCO2` [Example 57, N-[4-(methanesulfonylmethyl)phenyl]-6-{8-methyl-1H,2H,3H-pyrido[2,3-b][1,4]oxazin-7-yl}-5,6,7,8-tetrahydro-2,6-naphthyridin-3-amine] are less than 500 nM and less than 100 nM.
